According to US8927300B2, “Method and compositions for the detection of protein glycosylation” (California Institute of Technology, priority 2003, dated 2015):
“Also recorded” adds a separate entry of the source.

Key:
GalT = biological target: T1, GalT (Bos taurus, UniProt P08037); conditions: relative to Gal; cited from earlier work
T1 sequence (P08037 1-402): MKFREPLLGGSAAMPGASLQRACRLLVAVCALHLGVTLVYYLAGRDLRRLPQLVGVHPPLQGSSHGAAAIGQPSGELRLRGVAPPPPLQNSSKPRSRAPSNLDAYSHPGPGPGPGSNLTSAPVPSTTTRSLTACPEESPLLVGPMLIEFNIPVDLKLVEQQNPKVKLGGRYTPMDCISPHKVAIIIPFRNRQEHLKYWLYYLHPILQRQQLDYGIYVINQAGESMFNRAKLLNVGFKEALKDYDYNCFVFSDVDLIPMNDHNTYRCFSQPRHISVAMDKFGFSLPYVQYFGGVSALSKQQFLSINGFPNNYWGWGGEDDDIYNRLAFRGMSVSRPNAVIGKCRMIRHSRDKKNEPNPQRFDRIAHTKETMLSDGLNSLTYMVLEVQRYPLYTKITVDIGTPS

Y289L GalT = biological target: T2, Y289L GalT (Bos taurus, UniProt P08037, Y289L); assay: Transfer of keto-sugar from labeling agent 1 to O-GlcNAc peptide by Y289L mutant GalT, LC-MS; assay type: biochemical; conditions: peptide TAPTS(O-GlcNAc)TIAPG, 6 h at 4° C., diammonium salt
T2 construct: made in house
T2 sequence (P08037 1-402 Y289L): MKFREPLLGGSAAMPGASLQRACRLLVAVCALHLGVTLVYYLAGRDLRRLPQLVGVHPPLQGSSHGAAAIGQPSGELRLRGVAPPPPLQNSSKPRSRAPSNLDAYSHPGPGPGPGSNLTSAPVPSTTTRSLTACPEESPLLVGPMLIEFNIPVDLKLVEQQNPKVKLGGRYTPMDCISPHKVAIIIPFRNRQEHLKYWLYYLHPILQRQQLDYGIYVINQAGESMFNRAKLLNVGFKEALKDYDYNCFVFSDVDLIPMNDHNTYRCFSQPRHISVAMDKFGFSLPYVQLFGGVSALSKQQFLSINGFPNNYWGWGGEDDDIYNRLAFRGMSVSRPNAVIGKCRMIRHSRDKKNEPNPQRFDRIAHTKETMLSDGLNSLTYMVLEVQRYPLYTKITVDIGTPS
Procedure: The peptide TAPTS(O-GlcNAc)TIAPG (SEQ ID NO: 1) (10 μM) was dissolved in 25 mM MOPS buffer, pH 6.7 containing 5 mM MnCl2 and 8 μM reference peptide (ThermoFinnigan, San Jose, Calif.). Labeling agent 1 and mutant Y289L GalT were added to final concentrations of 1 mM and 100 ng/μL, respectively. Prior to enzyme addition, an aliquot of the—reaction was removed as an initial time point for LC-MS analysis. Reactions were incubated at 4° C. for 6 h, after which an aliquot of the reaction mixture was removed for product analysis by LC-MS. The remainder of the reaction was diluted 5-fold into PBS (final concentration: 10.1 mM Na2HPO4, 1.76 mM KH2HPO4, […], 2.7 mM KCl, pH 6.7), and N-(aminooxyacetyl)-N′-(D-biotinoyl) hydrazine (Molecular Probes, Eugene, Oreg.) was added to a final concentration of 12 mM. After 8 h at 25° C., the extent of biotin-oxime product was measured by LC-MS. […] Labeling reactions with wild-type GalT were performed identically, with the exception that reactions were incubated at 37° C. for 12 h. […]
Base peak chromatograms are shown before and 6 h after the addition of ketone analogue 1 and Y289L GalT. […] For reaction with detection agent aminooxy biotin, formation of the oxime product was monitored using an extracted ion chromatogram within the mass range 1319.0-1321.0 m/z and 1633.0-1635.5 m/z, which was generated post-acquisition via the Xcalibur™ software. […]

[1] = tested on: O-GlcNAc pendant moiety on α-crystallin; assay: Western / lectin blotting of α-crystallin with existing O-GlcNAc detection reagents; assay type: binding, bovine; conditions: blot, chemiluminescence, even when 10 μg of α-crystallin was used
Procedure: α-Crystallin, and appropriate positive and negative controls were resolved by 15% SDS-PAGE. All Western blotting steps were performed at RT unless otherwise noted. […] RL-2 antibody, at a concentration of 1:2000, was subsequently added in blocking buffer and blots were incubated for 1.5-2 h. Blots were then rinsed with hsTBST and washed 6×5 min. Secondary goat anti-mouse IgG antibody was applied at a concentration of 1:10,000 in hsTBS-T containing 1% BSA. After 1 h, blots were rinsed and washed as described before chemiluminescence detection on film (FIG. 11A). Western blotting with the CTD110.6 antibody was performed according to manufacturer's recommendations. Briefly, α-crystallin and controls were transferred to PVDF and washed 2×15 min with TBS-0.1% tween-20 (TBST). Blots were blocked in TBST containing 3% BSA for 1 h, rinsed 2× with TBST, and probed with CTD110.6 (1:2500) in blocking buffer for 1 h. Blots were then rinsed 2× with TBST and washed 2×5 min. Secondary goat anti-mouse IgM antibody was applied at a concentration of 1:10,000 in blocking buffer for 1 h, and blots were subsequently rinsed with TBST and washed 5×5 min before chemiluminescence detection on film (FIG. 11B).
WGA western blotting was performed essentially as described (25, 27). Briefly, α-crystallin and controls were resolved by 15% SDS-PAGE and electrophoretically transferred to nitrocellulose. […]

In the case of `OCC1OC(O)CC(O)[C@H]1O` (stereo partly drawn) [2-deoxy-Gal], the “rate of transfer by GalT” value (GalT) is listed as “rates comparable to Gal”.

With “Uridine 5′-diphospho-2-acetonyl-2deoxy-a-D-galactopyranose diammonium salt [Labeling agent 1]” the “conversion of peptide to ketone-labeled product” value (Y289L GalT) was “Complete conversion”.

B1: WGA: wheat-germ agglutinin lectin, existing method to detect GlcNAc (protein)
chain: QRCGEQGSNMECPNNLCCSQYGYCGMGGDYCGKGCQNGACWTSKRCGSQAGGATCTNNQCCSQYGYCGFGAEYCGAGCQGGPCRADIKCGSQAGGKLCPNNLCCSQWGFCGLGSEFCGGGCQSGACSTDKPCGKDAGGRVCTNNYCCSKWGSCGIGPGYCGAGCQSGGCDG
With B1 the “detection of O-GlcNAc on α-crystallin” value [1] was “failed to detect; also recorded: could not detect”.
